From PubChem BioAssay (NCI)
“And” between values parts separate entries of the source, which are not always exact repeats. Equal values may be shown once.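 48-hour exposure; five concentrations; linearly interpolated endpoints. GI50 marks 50% less growth. TGI is the concentration that stops growth completely.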

Columns and labels:
Assay in all cases: inhibition of tumour cell growth, NCI panel, 48 h
SK-OV-3 ovarian = test system: SK-OV-3 ovarian
DMS 114 small cell lung = test system: DMS 114 small cell lung
DMS 273 small cell lung = test system: DMS 273 small cell lung
SF-295 CNS = test system: SF-295 CNS
COLO 205 colon = test system: COLO 205 colon
T-47D breast = test system: T-47D breast
SNB-19 CNS = test system: SNB-19 CNS
HOP-92 NSCLC = test system: HOP-92 NSCLC
HCT-15 colon = test system: HCT-15 colon
OVCAR-3 ovarian = test system: OVCAR-3 ovarian

O=C(O)CCSC(=S)Nc1ccc([N+](=O)[O-])cc1
TGI (SK-OV-3 ovarian): > 100 µM
TGI (DMS 114 small cell lung): > 100 µM
TGI (DMS 273 small cell lung): > 100 µM
TGI (SF-295 CNS): > 100 µM
TGI (COLO 205 colon): > 100 µM
TGI (T-47D breast): > 100 µM
TGI (SNB-19 CNS): > 100 µM
TGI (HOP-92 NSCLC): 68.9 µM
TGI (HCT-15 colon): > 100 µM
TGI (OVCAR-3 ovarian): > 87.8 µM

CCCCCC/C=C1\CCC(CN(C)C)C1=O (stereo not drawn)
TGI (SK-OV-3 ovarian): 34.7 µM
TGI (DMS 114 small cell lung): 8.99 µM
TGI (DMS 273 small cell lung): 11.4 µM
TGI (SF-295 CNS): 27 µM
TGI (COLO 205 colon): 8.4 µM
TGI (T-47D breast): 9.81 µM
TGI (SNB-19 CNS): 30.8 µM
TGI (HOP-92 NSCLC): 28.8 µM
TGI (HCT-15 colon): 6.61 µM
TGI (OVCAR-3 ovarian): 17.7 µM

FC(F)(F)c1nc(-c2ccccc2)oc1Sc1oc(-c2ccccc2)nc1C(F)(F)F
TGI (SK-OV-3 ovarian): > 100 µM
TGI (DMS 114 small cell lung): > 100 µM
TGI (DMS 273 small cell lung): > 100 µM
TGI (SF-295 CNS): > 100 µM
TGI (COLO 205 colon): > 100 µM
TGI (SNB-19 CNS): > 100 µM
TGI (HOP-92 NSCLC): 94.6 µM
TGI (HCT-15 colon): > 100 µM
TGI (OVCAR-3 ovarian): > 100 µM

CC[CH2][Sn]([CH2]CC)([O]C(=O)Cc1ccc(F)cc1)[O][Sn]([CH2]CC)([CH2]CC)[O]C(=O)Cc1ccc(F)cc1
GI50 (SK-OV-3 ovarian): 0.774 µM
TGI (SK-OV-3 ovarian): 2.11 µM
GI50 (DMS 114 small cell lung): 0.029 µM
TGI (DMS 114 small cell lung): 0.119 µM
GI50 (DMS 273 small cell lung): 0.205 µM
TGI (DMS 273 small cell lung): 1.13 µM
GI50 (SF-295 CNS): 0.587 µM
TGI (SF-295 CNS): 1.57 µM
GI50 (COLO 205 colon): 0.266 µM
TGI (COLO 205 colon): 0.857 µM
GI50 (T-47D breast): 0.0296 µM
TGI (T-47D breast): 0.211 µM
GI50 (SNB-19 CNS): 0.443 µM
TGI (SNB-19 CNS): 1.35 µM
GI50 (HOP-92 NSCLC): 0.174 µM
TGI (HOP-92 NSCLC): 0.522 µM
GI50 (HCT-15 colon): 0.218 µM
TGI (HCT-15 colon): 0.658 µM
GI50 (OVCAR-3 ovarian): 0.431 µM
TGI (OVCAR-3 ovarian): 1.27 µM

CC(C)c1cccc(C(C)C)c1NC(=O)CCC(=O)NN
TGI (SK-OV-3 ovarian): > 100 µM
TGI (DMS 114 small cell lung): > 100 µM
TGI (DMS 273 small cell lung): > 100 µM
TGI (SF-295 CNS): > 100 µM
TGI (COLO 205 colon): 36.1 µM
TGI (SNB-19 CNS): > 100 µM
TGI (HOP-92 NSCLC): > 100 µM
TGI (HCT-15 colon): 37.7 µM
TGI (OVCAR-3 ovarian): > 100 µM

Cc1c(CC/C(=N\Nc2ccc([N+](=O)[O-])cc2[N+](=O)[O-])c2ccccc2)c2ccccc2n1C
TGI (SK-OV-3 ovarian): > 100 µM
TGI (DMS 114 small cell lung): > 100 µM
TGI (DMS 273 small cell lung): > 100 µM
TGI (SF-295 CNS): > 100 µM
TGI (COLO 205 colon): > 100 µM
TGI (SNB-19 CNS): > 100 µM
TGI (HOP-92 NSCLC): > 100 µM
TGI (HCT-15 colon): > 100 µM
TGI (OVCAR-3 ovarian): > 100 µM

c1ccc2c(c1)[nH]c1c2ncc2[nH]c3ccccc3c21
TGI (SK-OV-3 ovarian): 28.7 µM
TGI (DMS 114 small cell lung): 6.69 µM
TGI (DMS 273 small cell lung): 9.39 µM
TGI (SF-295 CNS): 11.4 µM
TGI (COLO 205 colon): 6.83 µM
TGI (SNB-19 CNS): 10.7 µM
TGI (HOP-92 NSCLC): 8.71 µM
TGI (HCT-15 colon): 7.7 µM
TGI (OVCAR-3 ovarian): 6.96 µM

COC(C)(C)[C@H](O)C(O)CC(C)[C@@H]1CCC23CC12CCC1[C@@]2(C)CCC(OC(C)=O)C(C)(C)C2CC(OC2OC(COC(C)=O)C(O)C(O)C2O)[C@]13C (stereo partly drawn)
GI50 (SK-OV-3 ovarian): 7.76 µM
TGI (SK-OV-3 ovarian): 17.7 µM and 20.4 µM
GI50 (DMS 114 small cell lung): 3.62 µM
TGI (DMS 114 small cell lung): 8.65 µM and 12.8 µM
GI50 (DMS 273 small cell lung): 7.7 µM
TGI (DMS 273 small cell lung): 10.2 µM and 23.4 µM
GI50 (SF-295 CNS): 2.17 µM
TGI (SF-295 CNS): 10.1 µM and 7.53 µM
GI50 (COLO 205 colon): 2.17 µM
TGI (COLO 205 colon): 11.3 µM and 4.58 µM
TGI (SNB-19 CNS): 14.5 µM and 20 µM
GI50 (HOP-92 NSCLC): 4.37 µM
TGI (HOP-92 NSCLC): 11.6 µM and 16.9 µM
GI50 (HCT-15 colon): 6.86 µM
TGI (HCT-15 colon): 6.28 µM and 19.8 µM
GI50 (OVCAR-3 ovarian): 4.26 µM
TGI (OVCAR-3 ovarian): 10.8 µM and 15.9 µM
